# Patent EP0912534B1, “MUSCARINIC ANTAGONISTS” (SCHERING CORPORATION, priority 1996, dated 1998)
# How the values were obtained:
# [1] = target: T1, cloned human m2 muscarinic receptor (Homo sapiens, UniProt P08172); experiment: Muscarinic binding activity (3H-QNB displacement), m2; details: Ki m2, membranes of transfected CHO cells
# T1 sequence (P08172 1-466): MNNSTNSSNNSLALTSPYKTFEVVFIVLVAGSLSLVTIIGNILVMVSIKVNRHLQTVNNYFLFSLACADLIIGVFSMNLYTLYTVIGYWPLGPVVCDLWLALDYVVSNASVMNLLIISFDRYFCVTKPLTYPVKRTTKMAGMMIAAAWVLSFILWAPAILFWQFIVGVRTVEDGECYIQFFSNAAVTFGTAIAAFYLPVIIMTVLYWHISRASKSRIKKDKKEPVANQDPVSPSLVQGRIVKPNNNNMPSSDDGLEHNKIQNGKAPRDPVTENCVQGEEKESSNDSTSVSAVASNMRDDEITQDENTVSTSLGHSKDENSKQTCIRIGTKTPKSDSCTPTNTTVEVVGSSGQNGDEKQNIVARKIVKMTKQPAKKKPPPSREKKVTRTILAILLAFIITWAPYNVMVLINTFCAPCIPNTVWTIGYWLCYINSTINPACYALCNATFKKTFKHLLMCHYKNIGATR
# [2] = target: T2, cloned human m1 muscarinic receptor (Homo sapiens, UniProt P11229); experiment: Muscarinic binding activity (3H-QNB displacement), m1; details: Ki m1, membranes of transfected CHO cells
# T2 sequence (P11229 1-460): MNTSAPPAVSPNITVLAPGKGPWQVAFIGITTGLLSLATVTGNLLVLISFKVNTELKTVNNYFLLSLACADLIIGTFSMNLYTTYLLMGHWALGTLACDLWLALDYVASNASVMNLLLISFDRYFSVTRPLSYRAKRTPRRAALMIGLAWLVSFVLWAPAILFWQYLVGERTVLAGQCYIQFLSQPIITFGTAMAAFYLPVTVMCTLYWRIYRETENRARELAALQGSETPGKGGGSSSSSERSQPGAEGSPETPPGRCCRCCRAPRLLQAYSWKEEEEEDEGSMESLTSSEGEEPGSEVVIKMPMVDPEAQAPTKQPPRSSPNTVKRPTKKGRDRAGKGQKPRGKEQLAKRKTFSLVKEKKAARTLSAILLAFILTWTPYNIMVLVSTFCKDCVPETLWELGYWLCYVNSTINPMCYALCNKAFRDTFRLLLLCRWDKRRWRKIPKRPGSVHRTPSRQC
# [3] = target: T3, cloned human m4 muscarinic receptor (Homo sapiens, UniProt P08173); experiment: Muscarinic binding activity (3H-QNB displacement), m4; details: Ki m4, membranes of transfected CHO cells
# T3 sequence (P08173 1-479): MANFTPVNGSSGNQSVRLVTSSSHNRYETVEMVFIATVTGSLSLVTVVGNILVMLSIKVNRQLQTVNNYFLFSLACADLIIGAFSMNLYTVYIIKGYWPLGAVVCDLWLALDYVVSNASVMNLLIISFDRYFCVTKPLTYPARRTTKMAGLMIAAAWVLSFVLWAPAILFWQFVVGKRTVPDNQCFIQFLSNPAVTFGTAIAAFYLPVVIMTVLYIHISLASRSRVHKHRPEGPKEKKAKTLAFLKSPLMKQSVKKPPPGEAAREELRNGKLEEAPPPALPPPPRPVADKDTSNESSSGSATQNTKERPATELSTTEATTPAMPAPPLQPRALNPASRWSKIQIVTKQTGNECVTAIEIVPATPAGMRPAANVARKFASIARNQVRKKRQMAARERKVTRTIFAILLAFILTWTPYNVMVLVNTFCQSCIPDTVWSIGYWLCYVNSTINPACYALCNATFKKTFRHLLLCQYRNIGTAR
# [4] = system: Release of Acetyl Choline (ACh) from Striatum; experiment: Microdialysis: release of acetylcholine from striatum of conscious rats; type: in vivo, male Sprague-Dawley Rats; details: 10 mg/kg peritoneal, 3 rats, Isomer A
# Experimental: The skull was exposed and drilled through to the dura at a point 0.2 mm anterior and 3.0 mm lateral to the bregma. At these coordinates, a guide cannula was positioned at the outer edge of the dura through the drilled opening, lowered perpendicularly to a depth of 2.5 mm, and permanently secured with dental cement to bone screws. Following the surgery, rats were given ampicillin (40 mg/kg, ip) and individually housed in modified cages. A recovery period of approximately 3 to 7 days was allowed before the microdialysis procedure was undertaken. • Microdialysis: All of the equipment and instrumentation used to conduct in vivo microdialysis was obtained from Bioanalytical Systems, Inc. (BAS). The microdialysis procedure required the insertion through the guide cannula of a thin, needle-like perfusable probe (CMA/12.3 mm x 0.5 mm) to a depth of 3 mm in striatum beyond the end of the guide. The probe was connected beforehand with tubing to a microinjection pump (CMA-/100). Rats were collared and tethered, and, following probe insertion, were placed in a large clear plexiglass bowl with litter material and access to food and water. The probe was perfused at 2 µl/min with Ringer's buffer (NaCl 147 mM; KCI 3.0 mM; CaCl2 1.2 mM; MgCl2 1.0 mM) containing 5.5 mM glucose, 0.2 mM L-ascorbate, and 1 µM neostigmine bromide at pH 7.4. To achieve stable baseline readings, microdialysis was allowed to proceed for 90 minutes prior to the collection of fractions. Fractions (20 µl) were obtained at 10-minute intervals over a 3-hour period using a refrigerated collector (CMA/170 or 200). Following the collection of four to five baseline fractions, the drug or combination of drugs to be tested was administered to the animal. Once collection was complete, each rat was autopsied to determine how accurately the probe was placed. • Acetylcholine (ACh) analysis: The concentration of ACh in collected samples of microdialysate was determined using HPLC/electrochemical detection. Samples were auto-injected (Waters 712 Refrigerated Sample Processor) onto a polymeric analytical HPLC column (BAS, MF-6150) and eluted with 50 mM Na2HPO4, pH 8.5. To prevent bacterial growth, Kathon CG reagent (0.005%) (BAS) was included in the mobile phase. Eluate from the analytical column, containing separated ACh and choline, was then immediately passed through an immobilized enzyme reactor cartridge (BAS, MF-6151) coupled to the column outlet. The reactor contained both acetylcholinesterase and choline oxidase covalently bound to a polymeric backbone. […] Data acquisition was carried out using an IBM Model 70 computer equipped with a microchannel IEEE board. Integration and quantification of peaks were accomplished using "Maxima" chromatography software (Waters Corporation). Total run time per sample was 11 minutes at a flow rate of 1 ml/min. Retention times for acetylcholine and choline were 6.5 and 7.8 minutes respectively. To monitor and correct for possible changes in detector sensitivity during chromatography, ACh standards were included at the beginning, middle and end of each sample queue.
# Increases in ACh levels are consistent with presynaptic m2 receptor antagonism.
smiles,measurement,setting,value
"COc1ccc(S(=O)(=O)c2ccc3c(c2)CCC3N2CCN(C3CCCCC3)C[C@H]2C)cc1 (single isomer, unassigned) [Compound 14]",Ki,[1],6.1 nM
same,Ki,[2],112 nM
same,Ki,[3],16 nM
same,Mean % of baseline,"[4]; sample collection time 20 min (control, first baseline, before injection)",99.47 % of baseline
same,Mean % of baseline,"[4]; sample collection time 30 min (control, second baseline, before injection)",100.85 % of baseline
same,Mean % of baseline,"[4]; sample collection time 40 min (control, third baseline, before injection)",99.71 % of baseline
same,Mean % of baseline,[4]; sample collection time 50 min (compounds injected at 50 minutes),99.20 % of baseline
same,Mean % of baseline,"[4]; sample collection time 60 min, injected at 50 min",100.78 % of baseline
same,Mean % of baseline,"[4]; sample collection time 70 min, injected at 50 min",86.66 % of baseline
same,Mean % of baseline,"[4]; sample collection time 80 min, injected at 50 min",95.26 % of baseline
same,Mean % of baseline,"[4]; sample collection time 90 min, injected at 50 min",95.90 % of baseline
same,Mean % of baseline,"[4]; sample collection time 100 min, injected at 50 min",102.30 % of baseline
same,Mean % of baseline,"[4]; sample collection time 110 min, injected at 50 min",108.24 % of baseline
same,Mean % of baseline,"[4]; sample collection time 120 min, injected at 50 min",85.62 % of baseline
same,Mean % of baseline,"[4]; sample collection time 130 min, injected at 50 min",103.94 % of baseline
same,Mean % of baseline,"[4]; sample collection time 140 min, injected at 50 min",99.35 % of baseline
same,Mean % of baseline,"[4]; sample collection time 150 min, injected at 50 min",91.47 % of baseline
same,Mean % of baseline,"[4]; sample collection time 160 min, injected at 50 min",90.80 % of baseline
same,Mean % of baseline,"[4]; sample collection time 170 min, injected at 50 min",89.0 % of baseline
same,Mean % of baseline,"[4]; sample collection time 180 min, injected at 50 min",83.13 % of baseline
